Where only a bound is given, the exact number is not on record here.

The target of the first test is DOT1L(1-416) (Homo sapiens, UniProt Q8TEK3). The experiment in a line: Determination of IC50: DOT1L(1-416) methyltransferase assay, 3H-SAM, oligonucleosome substrate, Flashplate. In kind it is biochemical. The following applies: class symbols; read-out: DOT1L IC50. In a few lines: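 Compounds in 10-point 3-fold DMSO dilutions were tested in reactions started with substrate mix of 200 nM [3H]-SAM, 600 nM unlabeled SAM and 20 nM oligonucleosome. Reactions ran 120 min at room temperature and were quenched with 100 μM SAM. Labeled substrate was captured on streptavidin Flashplates and counted by scintillation to give IC50.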
Sequence of DOT1L(1-416) (Q8TEK3 1-416): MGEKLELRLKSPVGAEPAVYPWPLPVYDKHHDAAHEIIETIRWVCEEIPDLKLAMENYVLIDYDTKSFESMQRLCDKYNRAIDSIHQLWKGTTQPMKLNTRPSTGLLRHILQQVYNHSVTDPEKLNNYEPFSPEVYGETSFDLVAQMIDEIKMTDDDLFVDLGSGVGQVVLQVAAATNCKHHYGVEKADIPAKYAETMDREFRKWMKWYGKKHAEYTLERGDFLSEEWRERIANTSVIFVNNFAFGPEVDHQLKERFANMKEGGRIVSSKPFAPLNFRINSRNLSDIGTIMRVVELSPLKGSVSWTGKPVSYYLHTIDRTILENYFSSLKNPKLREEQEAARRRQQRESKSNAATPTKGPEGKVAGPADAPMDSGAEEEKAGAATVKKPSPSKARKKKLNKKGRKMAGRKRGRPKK
Take `CC(C)N(C[C@H]1C[C@@H](n2ccc3c(N)ncnc32)[C@H](O)[C@@H]1O)C1CC(CCc2nc3cc(C(C)(C)C)ccc3[nH]2)C1` (stereo partly drawn) [Compound 19, (1R,2S,3R,5R)-3-(4-amino-7H-pyrrolo[2,3-d]pyrimidin-7-yl)-5-(((3-(2-(5-(tert-butyl)-1H-benzo[d]imidazol-2-yl)ethyl)cyclobutyl)(isopropyl)amino)methyl)cyclopentane-1,2-diol]: the IC50 is less than 100 nM.

`CC(C)N(C[C@H]1O[C@@H](n2cnc3c(N)ncnc32)[C@H](O)[C@@H]1O)C1CC(CCc2nc3cc(C4CCC4)ccc3[nH]2)C1` (stereo partly drawn) [Compound 67, (2R,3R,4S,5R)-2-(6-amino-9H-purin-9-yl)-5-[({3-[2-(5-cyclobutyl-1H-1,3-benzodiazol-2-yl)ethyl]cyclobutyl}(propan-2-yl)amino)methyl]oxolane-3,4-diol]: the IC50 is less than 100 nM.

`CN(C[C@H]1O[C@@H](n2ccc3c(N)ncnc32)[C@H](O)[C@@H]1O)[C@H]1C[C@@H](CCc2nc3cc(C(C)(C)C)ccc3[nH]2)C1` [Compound 86, (2R,3R,4S,5R)-2-(4-amino-7H-pyrrolo[2,3-d]pyrimidin-7-yl)-5-((((1r,3S)-3-(2-(5-(tert-butyl)-1H-benzo[d]imidazol-2-yl)ethyl)cyclobutyl) (methyl)amino)methyl) tetrahydrofuran-3,4-diol]: the IC50 is less than 100 nM.

Regarding `CC(C)N(C[C@H]1O[C@@H](n2cnc3c(N)ncnc32)[C@H](O)[C@@H]1O)[C@H]1C[C@H](CCc2nc3cc(CC(F)(F)F)ccc3[nH]2)C1` [Compound 123, (2R,3R,4S,5R)-2-(6-amino-9H-purin-9-yl)-5-((isopropyl((1s,3R)-3-(2-(5-(2,2,2-trifluoroethyl)-1H-benzo[d]imidazol-2-yl)ethyl)cyclobutyl)amino)methyl) tetrahydrofuran-3,4-diol], the IC50 was less than 100 nM.

With `CC(C)N(C[C@H]1O[C@@H](n2ccc3c(N)ncnc32)[C@H](O)[C@@H]1O)[C@H]1C[C@@H](CCc2nc3cc(C(C)(C)C)ccc3[nH]2)C1` [Compound 90, (2R,3R,4S,5R)-2-(4-amino-7H-pyrrolo[2,3-d]pyrimidin-7-yl)-5-((((1r,3S)-3-(2-(5-(tert-butyl)-1H-benzo[d]imidazol-2-yl)ethyl)cyclobutyl)(isopropyl)amino)methyl)tetrahydrofuran-3,4-diol], the IC50 was less than 100 nM.

Turning to `CC(C)(C)c1ccc2[nH]c(CC[C@H]3C[C@@H](NC[C@H]4O[C@@H](n5cnc6c(N)ncnc65)[C@H](O)[C@@H]4O)C3)nc2c1` [Compound 98, (2R,3R,4S,5R)-2-(6-amino-9H-purin-9-yl)-5-((((1r,3S)-3-(2-(5-(tert-butyl)-1H-benzo[d]imidazol-2-yl)ethyl)cyclobutyl)amino)methyl) tetrahydrofuran-3,4-diol], the IC50 is less than 100 nM.

As to `CC(C)N(C[C@H]1O[C@@H](n2cnc3c(N)ncnc32)[C@H](O)[C@@H]1O)[C@H]1C[C@@H](CCc2nc3cc(C4CCC4)ccc3[nH]2)C1` [Compound 115, (2R,3R,4S,5R)-2-(6-amino-9H-purin-9-yl)-5-((((1r,3S)-3-(2-(5-cyclobutyl-1H-benzo[d]imidazol-2-yl)ethyl)cyclobutyl) (isopropyl)amino)methyl)tetrahydrofuran-3,4-diol], the IC50 is less than 100 nM.

For the compound `CC(C)N(C[C@H]1O[C@@H](n2ccc3c(N)ncnc32)[C@H](O)[C@@H]1O)[C@H]1C[C@H](CCc2nc3cc(OC(F)(F)F)ccc3[nH]2)C1` [Compound 76, (2R,3R,4S,5R)-2-(4-amino-7H-pyrrolo[2,3-d]pyrimidin-7-yl)-5-((isopropyl((1s,3R)-3-(2-(5-(trifluoromethoxy)-1H-benzo[d]imidazol-2-yl)ethyl)cyclobutyl)amino)methyl)tetrahydrofuran-3,4-diol], the IC50 was less than 100 nM.

Regarding `CC(C)N(C[C@H]1C[C@@H](n2ccc3c(N)ncnc32)[C@H](O)[C@@H]1O)[C@H]1C[C@@H](CCc2nc3cc(C(C)(C)C)ccc3[nH]2)C1` [Compound 41, (1R,2S,3R,5R)-3-(4-amino-7H-pyrrolo[2,3-d]pyrimidin-7-yl)-5-((((1r,3S)-3-(2-(5-(tert-butyl)-1H-benzo[d]imidazol-2-yl)ethyl)cyclobutyl)(isopropyl)amino)methyl)cyclopentane-1,2-diol], the IC50 was less than 100 nM.

In the case of `CN(C[C@H]1C[C@@H](n2ccc3c(N)ncnc32)[C@H](O)[C@@H]1O)[C@H]1C[C@H](CCc2nc3cc(C(F)(F)F)ccc3[nH]2)C1` [Compound 11, (1R,2S,3R,5R)-3-(4-amino-7H-pyrrolo[2,3-d]pyrimidin-7-yl)-5-((methyl((1s,3R)-3-(2-(5-(trifluoromethyl)-1H-benzo[d]imidazol-2-yl)ethyl)cyclobutyl)amino)methyl)cyclopentane-1,2-diol], the IC50 was less than 100 nM.

Turning to `CN(C[C@H]1C[C@@H](n2ccc3c(N)ncnc32)[C@H](O)[C@@H]1O)[C@H]1C[C@H](CCc2nc3cc(Br)ccc3[nH]2)C1` [Compound 55, (1R,2S,3R,5R)-3-(4-amino-7H-pyrrolo[2,3-d]pyrimidin-7-yl)-5-((((1s,3R)-3-(2-(5-bromo-1H-benzo[d]imidazol-2-yl)ethyl)cyclobutyl)(methyl)amino)methyl)cyclopentane-1,2-diol], the IC50 is less than 100 nM.

For the compound `CN(C[C@H]1C[C@@H](n2ccc3c(N)ncnc32)[C@H](O)[C@@H]1O)C1CC(CCc2nc3cc(C(F)(F)F)c(Cl)cc3[nH]2)C1` (stereo partly drawn) [Compound 7, (1R,2S,3R,5R)-3-(4-amino-7H-pyrrolo[2,3-d]pyrimidin-7-yl)-5-(((3-(2-(6-chloro-5-(trifluoromethyl)-1H-benzo[d]imidazol-2-yl)ethyl)cyclobutyl)(methyl)amino)methyl)cyclopentane-1,2-diol], the IC50 was less than 100 nM.

As for `COCC(C)(C)c1ccc2[nH]c(CCC3CC(N(C[C@H]4O[C@@H](n5cnc6c(N)ncnc65)[C@H](O)[C@@H]4O)C(C)C)C3)nc2c1` (stereo partly drawn) [Compound 118, (2R,3R,4S,5R)-2-(6-amino-9H-purin-9-yl)-5-((isopropyl(3-(2-(5-(1-methoxy-2-methylpropan-2-yl)-1H-benzo[d]imidazol-2-yl)ethyl)cyclobutyl)amino)methyl) tetrahydrofuran-3,4-diol], the IC50 was less than 100 nM.

`CC(C)N(C[C@H]1O[C@@H](n2cnc3c(N)ncnc32)[C@H](O)[C@@H]1O)C1CC(CCc2nc3cc(C(C)(C)C#N)ccc3[nH]2)C1` (stereo partly drawn) [Compound 120, 2-(2-(2-(3-((((2R,3S,4R,5R)-5-(6-amino-9H-purin-9-yl)-3,4-dihydroxytetrahydro-furan-2-yl)methyl)(isopropyl)amino)cyclobutyl)ethyl)-1H-benzo[d]imidazol-5-yl)-2-methylpropanenitrile]: the IC50 is less than 100 nM.

With `CC(C)(C)c1ccc2[nH]c(CC[C@H]3C[C@@H](N(C[C@H]4O[C@@H](n5ccc6c(N)ncnc65)[C@H](O)[C@@H]4O)CC(F)(F)F)C3)nc2c1` [Compound 78, (2R,3R,4S,5R)-2-(4-amino-7H-pyrrolo[2,3-d]pyrimidin-7-yl)-5-((((1r,3S)-3-(2-(5-(tert-butyl)-1H-benzo[d]imidazol-2-yl)ethyl)cyclobutyl)(2,2,2-trifluoroethyl)amino)methyl)tetrahydrofuran-3,4-diol], the IC50 was 1000 to 10000 nM.

Regarding `CN(C[C@H]1C[C@@H](n2ccc3c(N)ncnc32)[C@H](O)[C@@H]1O)C1CC(CCc2nc3cc(Cl)c(Cl)cc3[nH]2)C1` (stereo partly drawn) [Compound 23, (1R,2S,3R,5R)-3-(4-amino-7H-pyrrolo[2,3-d]pyrimidin-7-yl)-5-(((3-(2-(5,6-dichloro-1H-benzo[d]imidazol-2-yl)ethyl)cyclobutyl)(methyl)amino)methyl)cyclopentane-1,2-diol], the IC50 was less than 100 nM.

As for `CC(C)(C)c1ccc2[nH]c(CC[C@H]3C[C@@H](N(C[C@H]4C[C@@H](n5ccc6c(N)ncnc65)[C@H](O)[C@@H]4O)C4CCC4)C3)nc2c1` [Compound 46, (1R,2S,3R,5R)-3-(4-amino-7H-pyrrolo[2,3-d]pyrimidin-7-yl)-5-((((1r,3S)-3-(2-(5-(tert-butyl)-1,1-benzo[d]imidazol-2-yl)ethyl)cyclobutyl)(cyclobutyl)amino)methyl)cyclopentane-1,2-diol], the IC50 is less than 100 nM.

For the compound `CCN(C[C@H]1O[C@@H](n2ccc3c(N)ncnc32)[C@H](O)[C@@H]1O)[C@H]1C[C@H](CCc2nc3cc(C(C)(C)C)ccc3[nH]2)C1` [Compound 88, (2R,3R,4S,5R)-2-(4-amino-7H-pyrrolo[2,3-d]pyrimidin-7-yl)-5-((((1s,3R)-3-(2-(5-(tert-butyl)-1H-benzo[d]imidazol-2-yl)ethyl)cyclobutyl) (ethyl)amino)methyl) tetrahydrofuran-3,4-diol], the IC50 is less than 100 nM.

Consider `CC(C)N(CC1CC(Cc2nc3cc(C(C)(C)C)ccc3[nH]2)C1)C[C@H]1C[C@@H](n2ccc3c(N)ncnc32)[C@H](O)[C@@H]1O` (stereo partly drawn) [Compound 22, (1R,2S,3R,5R)-3-{4-amino-7H-pyrrolo[2,3-d]pyrimidin-7-yl}-5-{[({3-[(5-tert-butyl-1H-1,3-benzodiazol-2-yl)methyl]cyclobutyl}methyl)(propan-2-yl)amino]methyl}cyclopentane-1,2-diol], for which the IC50 was 100 to 1000 nM.

`CC(C)N(C[C@H]1C[C@@H](n2ccc3c(N)ncnc32)[C@H](O)[C@@H]1O)[C@H]1C[C@H](CCc2nc3cc(OC(F)(F)F)ccc3[nH]2)C1` [Compound 61, (1R,2S,3R,5R)-3-(4-amino-7H-pyrrolo[2,3-d]pyrimidin-7-yl)-5-((isopropyl((1s,3R)-3-(2-(5-(trifluoromethoxy)-1H-benzo[d]imidazol-2-yl)ethyl)cyclobutyl)amino)methyl)cyclopentane-1,2-diol]: the IC50 was in the range of 100 to 1000 nM.

Regarding `CC(C)(C)c1ccc2[nH]c(CC[C@H]3C[C@H](NC[C@H]4O[C@@H](n5cnc6c(N)ncnc65)[C@H](O)[C@@H]4O)C3)nc2c1` [Compound 99, (2R,3R,4S,5R)-2-(6-amino-9H-purin-9-yl)-5-((((1s,3R)-3-(2-(5-(tert-butyl)-1H-benzo[d]imidazol-2-yl)ethyl)cyclobutyl)amino)methyl) tetrahydrofuran-3,4-diol], the 50% inhibitory concentration (IC50) is less than 100 nM.

The test is the same for the next values; noted with them: read-out: DOT1L IC50.
With `CN(C[C@H]1O[C@@H](n2ccc3c(N)ncnc32)[C@H](O)[C@@H]1O)[C@H]1C[C@@H](CCc2nc3cc(C(C)(C)C)ccc3[nH]2)C1` [Compound 86, (2R,3R,4S,5R)-2-(4-amino-7H-pyrrolo[2,3-d]pyrimidin-7-yl)-5-((((1r,3S)-3-(2-(5-(tert-butyl)-1H-benzo[d]imidazol-2-yl)ethyl)cyclobutyl) (methyl)amino)methyl) tetrahydrofuran-3,4-diol], the IC50 turned out to be 0.62 nM.

(Values after patent publication US8580762B2, “Substituted purine and 7-deazapurine compounds” (Epizyme, Inc., priority 2010, dated 2013).)
